Reference: patent US20090264291A1, “COMPOSITIONS COMPRISING ANTI-PROLIFERATIVE AGENTS AND USE THEREOF” (priority 1998, published 2009)
Where “and” joins values, the source holds several entries; their conditions need not be identical. Equal entries are not always repeated.

Test system: cells
Experiment: Cytotoxicity by agarose diffusion test
Assay type: cell-based
Protocol: Cytotoxicity was assessed by an agarose diffusion test, in which the test material is applied to the surface of agarose gel, wherein the agarose gel is in contact with cells. Cytotoxic test material causes cell lysis. Live cells incorporate MTT and transform it to formazan as described herein above; cytotoxicity potential is given according to the mean area of non-stained cells, i.e., lysed cells, by the following scale:
Two independent tests were performed in duplicate (total of 4 Petri dishes). Cultured cell were trypsinized and counted. 2×10^6 cells in 4 ml of DMEM medium were seeded in each 50 mm diameter Petri dish. The dishes were incubated for 24 h+1 h at 37° C., 5% CO2, before they were covered with 4% agarose gel, prepared with complete DMEM medium. The test compound (tomato derived extract) was applied on top of a 6 mm disc of filter paper that was placed in the center of the agarose gel surface.
After 23 h-25 h of contact at 37° C. and 5% CO2 the filter paper with the test compound and the agarose gel were gently removed. The cells were rinsed carefully with PBS by a pipette. The liquid was then removed, and 2 ml solution of MTT at 0.5 mg/ml, prepared extemporaneously from a source solution of 5 mg/ml, was added to each dish. The dishes were then incubated for 0.5-1.5 h at 37° C. and 5% CO2. After removal of the excess dye, living cells were colored while lysed cells appeared as an uncolored zone. Each dish was placed on a light surface and the largest and the smallest diameters of the lysis area, estimated visually, were measured by a measuring ruler (mm) on a graph paper, and the mean diameter was calculated.
The value of the diameter of cell lysis taken into account for the determination of cytotoxicity corresponded to the arithmetical mean of the mean diameter defined for the 2 dishes of each test (MD). Pure complete DMEM served as a negative control (no lysis should occur). 3% SDS served as a positive control (cells are lysed due to the presence of SDS).

[1] = dishes 1-4, 23 h-25 h of contact

CCCCCCCCCCCCOS(=O)(=O)[O-].[Na+] [3% SDS, SDS]
MD (mean of the mean diameter for the 2 dishes of each test) (dishes 1 + 2 and 3 + 4): 2.6 cm
Mean (diameter of lysis) (dishes 1-4): 2.6 cm and 2.5 cm
Largest diameter (of the lysis area) [1]: 2.5 cm and 2.6 cm
Smallest diameter (of the lysis area) [1]: 2.4 cm and 2.5 cm
